Test results: the Kinase Knowledgebase extract (Sharma et al. 2016)
Several values for one entry are separate records, joined by “and”; a condition that tells them apart may be missing. Identical values can stand only once.

Key:
[1] = molecular target: EGFR (Human), P00533 [Inhibition of EGFR Dependent Proliferation of HCC827(.Delta.746-750) cells]; assay: Cell-Based Assay
[2] = molecular target: EGFR (Human), P00533 [T790M/L858R]; assay: Cell-Based Assay; settings: h1975
[3] = molecular target: EGFR (human), P00533 [WT]; settings: a431
EGFR (human), P00533 [WT], sequence (P00533 whole entry, looked up): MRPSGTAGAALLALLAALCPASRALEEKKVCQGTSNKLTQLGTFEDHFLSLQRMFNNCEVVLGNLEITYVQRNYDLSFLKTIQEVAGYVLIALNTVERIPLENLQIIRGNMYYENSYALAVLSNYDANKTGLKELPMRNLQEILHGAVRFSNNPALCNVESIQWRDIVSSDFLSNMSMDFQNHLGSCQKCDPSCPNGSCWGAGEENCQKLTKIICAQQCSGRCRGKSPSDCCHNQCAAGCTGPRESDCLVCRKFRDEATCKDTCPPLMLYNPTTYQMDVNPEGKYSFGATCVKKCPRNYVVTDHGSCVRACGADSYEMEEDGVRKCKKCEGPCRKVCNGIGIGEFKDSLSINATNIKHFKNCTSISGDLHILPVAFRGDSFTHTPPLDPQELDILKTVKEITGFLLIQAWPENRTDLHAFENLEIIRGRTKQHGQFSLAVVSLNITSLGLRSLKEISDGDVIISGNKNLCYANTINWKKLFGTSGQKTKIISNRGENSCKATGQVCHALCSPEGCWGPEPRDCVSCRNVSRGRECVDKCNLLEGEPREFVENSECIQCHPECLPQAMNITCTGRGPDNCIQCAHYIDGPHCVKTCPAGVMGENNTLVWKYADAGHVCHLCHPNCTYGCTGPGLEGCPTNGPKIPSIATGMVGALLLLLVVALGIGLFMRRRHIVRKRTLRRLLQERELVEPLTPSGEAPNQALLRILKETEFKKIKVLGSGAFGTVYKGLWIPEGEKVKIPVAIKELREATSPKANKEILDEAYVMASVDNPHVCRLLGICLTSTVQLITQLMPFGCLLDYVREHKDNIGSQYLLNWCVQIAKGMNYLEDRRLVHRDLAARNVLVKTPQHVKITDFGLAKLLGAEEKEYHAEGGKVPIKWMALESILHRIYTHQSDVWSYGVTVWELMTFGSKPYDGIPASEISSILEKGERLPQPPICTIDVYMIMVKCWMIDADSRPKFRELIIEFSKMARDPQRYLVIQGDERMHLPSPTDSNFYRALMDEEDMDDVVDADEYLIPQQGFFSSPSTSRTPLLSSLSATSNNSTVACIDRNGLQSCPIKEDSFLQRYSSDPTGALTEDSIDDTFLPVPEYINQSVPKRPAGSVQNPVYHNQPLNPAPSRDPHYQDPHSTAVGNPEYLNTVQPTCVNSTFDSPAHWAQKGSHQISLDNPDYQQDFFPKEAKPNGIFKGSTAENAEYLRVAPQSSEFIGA

[4] = molecular target: EGFR (Human), P00533 [Assessment of Phosphorylation of EGFR(.Delta.746-750) in HCC827 Cells]; assay: Cell-Based Assay
EGFR (Human), P00533 [Assessment of Phosphorylation of EGFR(.Delta.746-750) in HCC827 Cells], sequence (P00533 whole entry, looked up, stated change not applied): as the sequence (P00533 whole entry, looked up) above

[5] = molecular target: EGFR (Human), P00533 [T790M/L858R]; assay: Cell-Based Assay; settings: h1975; remark: listed apart in the source
[6] = molecular target: EGFR (human), P00533 [WT]; assay: Cell-Based Assay; settings: a431

EGFR (Human), P00533 [Inhibition of EGFR Dependent Proliferation of HCC827(.Delta.746-750) cells], sequence (P00533 whole entry, looked up, stated change not applied): as the sequence (P00533 whole entry, looked up) above
EGFR (Human), P00533 [T790M/L858R], sequence (P00533 whole entry T790M/L858R, looked up): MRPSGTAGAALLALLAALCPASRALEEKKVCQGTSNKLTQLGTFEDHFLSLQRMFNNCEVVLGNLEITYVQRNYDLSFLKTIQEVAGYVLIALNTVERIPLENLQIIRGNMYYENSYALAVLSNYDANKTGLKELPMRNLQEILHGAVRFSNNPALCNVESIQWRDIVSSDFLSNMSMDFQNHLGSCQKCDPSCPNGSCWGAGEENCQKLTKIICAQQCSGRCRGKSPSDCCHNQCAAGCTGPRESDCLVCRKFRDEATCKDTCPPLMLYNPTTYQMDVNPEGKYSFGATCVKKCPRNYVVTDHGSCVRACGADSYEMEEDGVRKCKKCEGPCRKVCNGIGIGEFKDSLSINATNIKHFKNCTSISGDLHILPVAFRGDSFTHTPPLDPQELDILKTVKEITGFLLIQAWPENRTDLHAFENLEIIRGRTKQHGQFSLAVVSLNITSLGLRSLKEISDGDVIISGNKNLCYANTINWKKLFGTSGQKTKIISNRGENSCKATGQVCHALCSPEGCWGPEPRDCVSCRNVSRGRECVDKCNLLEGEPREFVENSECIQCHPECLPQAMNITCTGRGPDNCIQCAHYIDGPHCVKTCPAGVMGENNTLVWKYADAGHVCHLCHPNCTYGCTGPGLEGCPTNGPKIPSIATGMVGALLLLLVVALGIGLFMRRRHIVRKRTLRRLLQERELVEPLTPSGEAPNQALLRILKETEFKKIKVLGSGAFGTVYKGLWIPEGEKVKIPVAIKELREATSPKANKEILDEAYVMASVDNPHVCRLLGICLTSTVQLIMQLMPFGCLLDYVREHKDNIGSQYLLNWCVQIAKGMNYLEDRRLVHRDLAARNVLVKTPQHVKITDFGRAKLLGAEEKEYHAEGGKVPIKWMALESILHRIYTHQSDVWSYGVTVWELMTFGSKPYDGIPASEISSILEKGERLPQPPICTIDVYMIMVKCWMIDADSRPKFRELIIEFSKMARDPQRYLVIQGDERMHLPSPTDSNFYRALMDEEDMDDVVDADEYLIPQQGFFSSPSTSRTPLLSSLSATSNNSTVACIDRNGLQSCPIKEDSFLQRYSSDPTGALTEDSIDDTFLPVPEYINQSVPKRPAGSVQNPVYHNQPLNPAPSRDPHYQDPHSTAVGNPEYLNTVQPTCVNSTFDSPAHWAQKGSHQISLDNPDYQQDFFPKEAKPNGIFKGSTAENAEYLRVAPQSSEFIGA

| Compound | IC50 [1] | IC50 [2] [nM] | IC50 [3] [nM] | IC50 [4] [nM] | IC50 [5] [nM] | IC50 [6] [nM] |
| --- | --- | --- | --- | --- | --- | --- |
| C=CC(=O)Nc1cccc(-n2c(=O)cc(C)c3cnc(Nc4cnn(C)c4)nc32)c1 | 77 nM | 62 | 16600 |  |  |  |
| C=CC(=O)Nc1cccc(-n2c(=O)ccc3cnc(Nc4ccc(N5CCN(C)CC5)cc4OC)nc32)c1 |  |  |  | 3.4 |  |  |
| C=CC(=O)Nc1cccc(-n2c(=O)cc(C)c3cnc(Nc4ccc(C5CCN(C)CC5)cc4)nc32)c1 | 27 nM | 11 |  |  |  |  |
| C=CC(=O)Nc1cccc(-n2c(=O)cc(C)c3cnc(Nc4cnn(CCN(C)C)c4)nc32)c1 | 305 nM | 162 |  |  |  |  |
| C=CC(=O)N1CC[C@H](Cn2c(=O)cc(C)c3cnc(Nc4ccc(N5CCN(C)CC5)cc4OC)nc32)C1 |  | 175 |  |  |  |  |
| C=CC(=O)Nc1cccc(-n2c(=O)cc(C)c3cnc(Nc4cn([C@H]5CCN(C)C5)nc4C)nc32)c1 | 49 nM | 18 | 1280 |  |  |  |
| C=CC(=O)Nc1cccc(-n2c(=O)c(OC)c(C)c3cnc(Nc4ccc(N5CCN(C)CC5)cc4OC)nc32)c1 | 41 nM | 10 | 1390 |  |  |  |
| C=CC(=O)Nc1cccc(-n2c(=O)cc(C)c3cnc(Nc4cnn(C(C)C)c4)nc32)c1 |  | 101 |  |  |  |  |
| C=CC(=O)Nc1cccc(-n2c(=O)cc(C)c3cnc(Nc4ccc(N5CCN(C(C)=O)CC5)cc4Cl)nc32)c1 | 236 nM | 9 | 4270 |  |  |  |
| C=CC(=O)Nc1cccc(-n2c(=O)cc(C)c3cnc(Nc4ccnn4CC)nc32)c1 |  | 911 |  |  |  |  |
| C=CC(=O)Nc1cccc(-n2c(=O)cc(C)c3cnc(Nc4cn(C)nc4C(F)(F)F)nc32)c1 |  | 53 |  |  |  |  |
| C=CC(=O)Nc1cccc(-n2c(=O)c(OC)cc3cnc(Nc4ccc(N5CCN(C)CC5)cc4OC)nc32)c1 | 61 nM | 272 | 201 |  |  |  |
| C=CC(=O)Nc1cccc(-n2c(=O)cc(C)c3cnc(Nc4ccc(C5CCNCC5)cc4)nc32)c1 |  | 180 |  |  |  |  |
| C=CC(=O)Nc1cccc(-n2c(=O)ccc3cnc(Nc4cn(C)nc4C)nc32)c1 | 2 nM | 7 |  |  |  |  |
| C=CC(=O)Nc1cccc(-n2c(=O)c(Cc3ccccc3)cc3cnc(Nc4ccc(N5CCN(C)CC5)cc4OC)nc32)c1 | 18 nM | 4 | 250 |  |  |  |
| C=CC(=O)Nc1cccc(-n2c(=O)cc(C)c3cnc(Nc4cn(C)nc4Cl)nc32)c1 | 30 nM | 16 | 2870 |  |  |  |
| C=CC(=O)Nc1cccc(-n2c(=O)cc(C)c3cnc(Nc4ccc(N5CCC(C(C)(C)O)CC5)cc4)nc32)c1 | 401 nM | 176 | 6670 |  |  |  |
| C=CC(=O)Nc1cccc(-n2c(=O)cc(C)c3cnc(Nc4cc(C)nn4C)nc32)c1 |  | 762 |  |  |  |  |
| C=CC(=O)Nc1cccc(-n2c(=O)cc(C)c3cnc(Nc4ccc(N5CCN(C)CC5)c(C)c4)nc32)c1 | 36 nM | 5.8 | 653 |  |  |  |
| C=CC(=O)Nc1cccc(-n2c(=O)ccc3cnc(Nc4ccc(NC5CN(CCF)C5)cc4OC)nc32)c1 |  |  |  | 5 |  |  |
| C=CC(=O)Nc1cccc(-n2c(=O)cc(C)c3cnc(Nc4ccc(N5CCN(C)CC5)c(F)c4)nc32)c1 | 86 nM | 28 | 1260 |  |  |  |
| C=CC(=O)Nc1cccc(-n2c(=O)cc(C)c3cnc(Nc4cn(C5CCN(C)CC5)nc4C)nc32)c1.C=CC(=O)Nc1cccc(-n2c(=O)cc(C)c3cnc(Nc4cnn(C5CCN(C)CC5)c4C)nc32)c1 | 1050 nM | 310 | 1820 |  |  |  |

Results, then the compound that gave them:

| IC50 [1] | IC50 [2] [nM] | IC50 [3] [nM] | IC50 [4] [nM] | IC50 [5] [nM] | IC50 [6] [nM] | Compound |
| --- | --- | --- | --- | --- | --- | --- |
| 272 nM | 128 | 1410 |  |  |  | C=CC(=O)Nc1cccc(-n2c(=O)cc(C)c3cnc(Nc4ccc(N(C)CCN5CCCC5)cc4OC)nc32)c1 |
| 249 nM | 42 | 2410 |  |  |  | C=CC(=O)Nc1cccc(-n2c(=O)cc(C)c3cnc(Nc4ccc(OCCOC)cc4)nc32)c1 |
| 23 nM | 8 |  |  |  |  | C=CC(=O)Nc1cccc(-n2c(=O)cc(C)c3cnc(Nc4ccc(N(C)CCN(C)C)cc4)nc32)c1 |
| 21 nM | 13 | 3100 |  |  |  | C=CC(=O)Nc1cccc(-n2c(=O)cc(C)c3cnc(Nc4ccc(N(C)CCN(C)C)cc4Cl)nc32)c1 |
| 124 nM | 9 | 1150 |  |  |  | C=CC(=O)Nc1cccc(-n2c(=O)cc(C)c3cnc(Nc4ccc(N(C)CCN(C)C)cc4C)nc32)c1 |
| 159 nM | 27 | 1550 |  |  |  | C=CC(=O)Nc1cccc(-n2c(=O)cc(C)c3cnc(Nc4ccc(OCCCN(C)C)cc4)nc32)c1 |
|  | 714 |  |  |  |  | C=CC(=O)Nc1cccc(-n2c(=O)cc(C)c3cnc(Nc4cccc(F)c4)nc32)c1 |
| 76 nM | 51 | 1340 |  |  |  | C=CC(=O)Nc1cccc(-n2c(=O)cc(C)c3cnc(Nc4ccc(OCCN(C)C)cc4F)nc32)c1 |
| 22 nM | 16 | 1250 |  |  |  | C=CC(=O)Nc1cccc(-n2c(=O)cc(C)c3cnc(Nc4cn(C)nc4C)nc32)c1 |
|  | 10.3 | 2110 |  |  |  | C=CC(=O)Nc1cccc(-n2c(=O)cc(C)c3cnc(Nc4ccc(O[C@H]5CCN(C)C5)cc4OC)nc32)c1 |
| 17 nM and 10 nM | 9 | 1030 |  |  |  | C=CC(=O)Nc1cccc(-n2c(=O)cc(C)c3cnc(Nc4ccc(OCCN(C)C)cc4)nc32)c1 |
| 1370 nM | 336 | 18000 |  |  |  | C/C=C/C(=O)Nc1cccc(-n2c(=O)cc(C)c3cnc(Nc4ccc(N(C)CCN(C)C)cc4OC)nc32)c1 |
| 83 nM | 24 | 884 |  |  |  | C=CC(=O)Nc1cccc(-n2c(=O)cc(C)c3cnc(Nc4ccc(N(C)CCN(C)C)cc4OC(F)F)nc32)c1 |
| 483 nM | 35 | 1690 |  |  |  | C=CC(=O)Nc1cccc(-n2c(=O)cc(C)c3cnc(Nc4ccc(N(C)CCO)cc4OC)nc32)c1 |
| 1480 nM | 870 | 24800 |  |  |  | C/C=C/C(=O)Nc1cccc(-n2c(=O)cc(C)c3cnc(Nc4ccc(OCCN(C)C)cc4OC)nc32)c1 |
| 46 nM | 4.7 | 832 |  |  |  | C=CC(=O)Nc1cccc(-n2c(=O)cc(C)c3cnc(Nc4ccc(OCCN(C)C)cc4Cl)nc32)c1 |
| 28 nM | 4 | 2400 | 17 | 4 | 511 | C=CC(=O)Nc1cccc(-n2c(=O)cc(C)c3cnc(Nc4ccc(OCCN(C)C)cc4OC)nc32)c1 |
| 22 nM | 8 | 1400 | 24 | 7.8 | 689 | C=CC(=O)Nc1cccc(-n2c(=O)cc(C)c3cnc(Nc4ccc(N(C)CCN(C)C)cc4OC)nc32)c1 |
| 401 nM | 108 | 4240 |  |  |  | C=CC(=O)Nc1cccc(-n2c(=O)cc(C)c3cnc(Nc4ccc(N(C)CCN5CCCC5=O)cc4OC)nc32)c1 |
|  |  |  | 8 |  |  | C=CC(=O)Nc1cccc(-n2c(=O)cc(C)c3cnc(Nc4ccc(N5CCN(C)CC5)cc4OC)nc32)c1 |
